# Data reported in patent publication US20260355171A1, “INHIBITORS AND USES THEREFOR” (priority 2022, published 2026).
# Several values for one entry are separate records, joined by “and”; a condition that tells them apart may be missing. Identical values can stand only once. Like-named read-outs stand apart in the source and are kept apart here.
# What was measured:
# [1] = tested on: primary neurons expressing SARS-CoV-2 NSP5 (AAV9-NSP5-V5); experiment: Effect on neurons in the presence of NSP5 (AAV9-NSP5-V5, immunofluorescence); format: cell-based, mouse; settings: 0.4, 2, 10 or 50 μM, two days
# primary neurons [2] = experiment: Effect of compounds on neuronal cell death caused by NSP5 (Example 6); format: cell-based, mouse; settings: 10 μM, 48 hours
# [3] = Tissue (brain/lung) exposure, IP administration; format: in vivo, mouse; settings: for Unbound Brain Parenchyma Concentration, individual / Unbound Plasma Concentration, individual / B:P ratio (brain:plasma), individual / L:P ratio, individual / Unbound B:P ratio (Kp,uu), individual / concentration / Kp at 0.5 h / concentration at 0.5 h / Kp uu at 0.5 h / Kp at 4 h / concentration at 4 h / Kp uu at 4 h / concentration at 24 h: 10 mg/kg; for Kp at 0.5 h / concentration at 0.5 h / Kp uu at 0.5 h / Kp at 4 h / concentration at 4 h / Kp uu at 4 h / concentration at 24 h: mouse, ip
# Procedure: For the tissue collection, at 0.5, 4 and 24 h following IP administration, mice were anaesthetised (using gaseous isoflurane). Immediately after the submandibular bleed, mice were killed via cervical dislocation and the whole brain and lung were removed from each carcase. All these tissues were blotted to remove excess blood, placed into pre-weighed polypropylene vials and weighed. Tissue samples were snap frozen in dry ice and subsequently stored frozen at −80 °C until analysis. A summary of the bioanalytical method is included in Table 5.
# (§1) Tissue: Pre-weighed tissue samples (brain and lung) were homogenised using a gentleMACS™ Octo Dissociator (Miltenyi Biotec, Macquarie Park, Australia) in buffer containing an EDTA/potassium fluoride solution (0.1 M/4 mg/mL) as a stabilisation cocktail to minimise the potential for ex vivo degradation (3 mL cocktail/g tissue). The tissue homogenate was briefly centrifuged (RCF=79×g) for 10 seconds to separate the foam layer before transferring an aliquot of the tissue homogenate (200 μL) to a fresh Eppendorf tube for sample extraction. Calibration standards were prepared by spiking blank brain and lung homogenate (200 μL) with the solution standards (10 μL) and the internal standard (10 μL). Study samples (for all tissue types) were similarly prepared, except that acetonitrile (10 μL) was added instead of solution standards to maintain the same volume. Protein precipitation was carried out by the addition of a 3-fold volume of acetonitrile, followed by vortex mixing and centrifugation (RCF=9391×g) for 3 min to recover the supernatant for analysis.
# The concentration of compound 22 in brain or lung parenchyma was calculated on the basis of the measured concentration in brain or lung homogenate, after correcting for the contribution of compound contained within the vascular space of brain or lung samples as follows:
# Ctissue=Ctissue homogentate−Ctissue vasculature where Ctissue vasculature=Cplasma×Vp • Ctissue=concentration of compound in brain or lung parenchyma (μM) • Ctissue homogenate=concentration of compound in brain or lung homogenate (μM) • Ctissue vasculature=concentration of compound in brain or lung vasculature (μM) • Cplasma=concentration of compound in plasma (μM)
# Vp=brain plasma volume (0.017 mL/g for male C57BL/6 mice; Nicolazzo et al. (2010), Clinical and Experimental Pharmacology and Physiology, 37: 647-649) or lung plasma volume (0.16 mL/g of tissue, Boswell et al. (2014), Molecular Pharmaceutics, 11: 1591-1598)
# Concentrations in brain or lung parenchyma were converted from units of ng/g to μM assuming a specific gravity of 1.
# For each mouse, the tissue (brain or lung)-to-plasma concentration ratio (based on total concentrations in each matrix) was calculated as: […]
# For brain uptake, the unbound brain-to-plasma partition coefficient (based on unbound concentrations in each matrix) was calculated as: […]
# [4] = In vivo whole blood-to-plasma ratio; settings: IV 3 mg/kg, 1 h post dose, mouse blood, n=3; read-out: B/P ratio (whole blood-to-plasma)
# Procedure: As part of the assessment of the IV pharmacokinetics, blood was collected from mice (n=3) at 1 h post dose for the purposes of determining the whole blood-to-plasma (B/P) ratio.
# Blood was collected via cardiac puncture (whilst under gaseous isoflurane anaesthesia) into tubes containing heparin. The haematocrit was determined via centrifugation [13000×g for 4 min using a Clemets® Microhematocrit centrifuge (Clements, Rydalmere, Australia) and Safecap® Plain Self-sealing Mylar Wrapped capillary tubes (Safe-Tec Clinical Products LLC, Broomall, USA)], and values ranged from 32% to 36% for blood samples across the three mice.
# Each blood aliquot (25 μL) was collected and matrix matched with an equivalent volume of blank plasma. The remainder of the blood sample was centrifuged and 1×25 μL plasma aliquot was collected and matrix matched with an equivalent volume of blank blood. Samples were frozen on dry ice and subsequently stored at −80 °C until analysis by LC-MS. The B/P ratio was calculated on the basis of the LC-MS response of compound 22 in blood and plasma following centrifugation of whole blood and the average B/P ratio (n=3 mice) is reported.
# [5] = Stability in brain and lung homogenates; format: in vitro ADME, mouse; settings: sample processing (15 min), EDTA/potassium fluoride
# Procedure: as §1
# primary neurons [6] = experiment: Cytotoxicity / neuronal cell death in the presence of NSP5 (PI/DAPI)
# [7] = 0.5 h, IP 10 mg/kg, individual mice
# [8] = 0.5 h, IP 10 mg/kg, individual mice, 30 min
# [9] = 4.0 h, IP 10 mg/kg, individual mice
# [10] = 4.0 h, IP 10 mg/kg, individual mice, 240 min
compound,measurement,setting,value
NC(=O)C1CCN(c2ncccc2CNCc2cccc3[nH]ccc23)CC1 [Compound 22],Prevention of NSP5-induced neuronal death,[1],prevented NSP5-induced neuronal death in a dose-dependent manner
same,Reduction of neuronal cell death caused by NSP5,primary neurons [2],greatest activity
same,"Unbound Brain Parenchyma Concentration, individual",[3]; [7],0.160 µM and 0.138 µM and 0.169 µM
same,"Unbound Plasma Concentration, individual",[3]; [7],1050 nM and 704 nM and 841 nM
same,"B:P ratio (brain:plasma), individual",[3]; [8],0.23
same,"L:P ratio, individual",[3]; [8],2.8 and 2.6
same,"Unbound B:P ratio (Kp,uu), individual",[3]; [8],0.20
same,concentration,"[3]; 0.5 h, IP 10 mg/kg, individual mice, 30 min, read-out: Total Brain Parenchyma Concentration, individual",291 nM
same,concentration,"[3]; 0.5 h, IP 10 mg/kg, individual mice, 30 min, read-out: Total Lung Parenchyma Concentration, individual",3560 nM and 4000 nM
same,concentration,"[3]; 0.5 h, IP 10 mg/kg, individual mice, 30 min, read-out: Total Plasma Concentration, individual",1290 nM and 1540 nM
same,"Unbound Brain Parenchyma Concentration, mean","[3]; 0.5 h, IP 10 mg/kg, mean",0.155 µM
same,"Unbound Plasma Concentration, mean","[3]; 0.5 h, IP 10 mg/kg, mean",866 nM
same,"Unbound Brain Parenchyma Concentration, individual",[3]; [9],0.0292 µM and 0.0285 µM
same,"Unbound Plasma Concentration, individual",[3]; [9],4.3 nM and 3.3 nM
same,"B:P ratio (brain:plasma), individual",[3]; [10],9.91
same,"L:P ratio, individual",[3]; [10],68.6
same,"Unbound B:P ratio (Kp,uu), individual",[3]; [10],8.59
same,concentration,"[3]; 4.0 h, IP 10 mg/kg, individual mice, 240 min, read-out: Total Brain Parenchyma Concentration, individual",60.1 nM
same,concentration,"[3]; 4.0 h, IP 10 mg/kg, individual mice, 240 min, read-out: Total Lung Parenchyma Concentration, individual",416 nM
same,concentration,"[3]; 4.0 h, IP 10 mg/kg, individual mice, 240 min, read-out: Total Plasma Concentration, individual",6.1 nM
same,"Unbound Brain Parenchyma Concentration, mean","[3]; 4.0 h, IP 10 mg/kg, mean",0.0288 µM
same,"Unbound Plasma Concentration, mean","[3]; 4.0 h, IP 10 mg/kg, mean",3.8 nM
same,"Unbound Brain Parenchyma Concentration, individual","[3]; 24 h, IP 10 mg/kg, individual mice",0.0060 µM and 0.0005 µM
same,concentration,"[3]; 24 h, IP 10 mg/kg, individual mice, 1440 min, read-out: Total Lung Parenchyma Concentration, individual",2.5 nM and 1.6 nM and 0.7 nM
same,Apparent tissue-to-plasma ratio (B:P or L:P) at 4 h versus 0.5 h,[3]; IP 10 mg/kg,substantially higher than that at 0.5 h
same,Duration of measurable concentrations in brain,[3]; IP 10 mg/kg,≤ 4 h
same,Duration of measurable concentrations in lung,[3]; IP 10 mg/kg,up to 24 hours
same,"Unbound Brain Parenchyma Concentration, mean","[3]; IP 10 mg/kg, mean",0.0033 µM
same,Kp at 0.5 h,"[3]; brain, 0.5 h, individual mice, read-out: B:P ratio (brain:plasma), individual",0.18
same,concentration at 0.5 h,"[3]; brain, 0.5 h, individual mice, read-out: Total Brain Parenchyma Concentration, individual",337 nM
same,Kp uu at 0.5 h,"[3]; brain, 0.5 h, individual mice, read-out: Unbound B:P ratio (Kp,uu), individual",0.15
same,Kp at 0.5 h,"[3]; brain, 0.5 h, mean, read-out: B:P ratio (brain:plasma), mean",0.21
same,concentration at 0.5 h,"[3]; brain, 0.5 h, mean, read-out: Total Brain Parenchyma Concentration, mean",328 nM
same,Kp uu at 0.5 h,"[3]; brain, 0.5 h, mean, read-out: Unbound B:P ratio (Kp,uu), mean",0.18
same,Kp at 4 h,"[3]; brain, 4.0 h, individual mice, read-out: B:P ratio (brain:plasma), individual",7.9
same,concentration at 4 h,"[3]; brain, 4.0 h, individual mice, read-out: Total Brain Parenchyma Concentration, individual",61.6 nM
same,Kp uu at 4 h,"[3]; brain, 4.0 h, individual mice, read-out: Unbound B:P ratio (Kp,uu), individual",6.84
same,concentration at 4 h,"[3]; brain, 4.0 h, mean, mouse 16 excluded, read-out: Total Brain Parenchyma Concentration, mean",60.9 nM
same,Kp at 4 h,"[3]; brain, 4.0 h, mean, read-out: B:P ratio (brain:plasma), mean",8.9
same,Kp uu at 4 h,"[3]; brain, 4.0 h, mean, read-out: Unbound B:P ratio (Kp,uu), mean",7.72
same,concentration at 24 h,"[3]; brain, 24 h, mean, read-out: Total Brain Parenchyma Concentration, mean",6.9 nM
same,Kp at 0.5 h,"[3]; lung, 0.5 h, individual mice, read-out: L:P ratio, individual",2
same,concentration at 0.5 h,"[3]; lung, 0.5 h, individual mice, read-out: Total Lung Parenchyma Concentration, individual",3830 nM
same,Kp at 0.5 h,"[3]; lung, 0.5 h, mean, read-out: L:P ratio, mean",2.5
same,concentration at 0.5 h,"[3]; lung, 0.5 h, mean, read-out: Total Lung Parenchyma Concentration, mean",3800 nM
same,Kp at 4 h,"[3]; lung, 4.0 h, individual mice, read-out: L:P ratio, individual",45.7
same,concentration at 4 h,"[3]; lung, 4.0 h, individual mice, read-out: Total Lung Parenchyma Concentration, individual",356 nM
same,concentration at 4 h,"[3]; lung, 4.0 h, mean, mouse 16 excluded, read-out: Total Lung Parenchyma Concentration, mean",386 nM
same,Kp at 4 h,"[3]; lung, 4.0 h, mean, read-out: L:P ratio, mean",57.1
same,concentration at 24 h,"[3]; lung, 24 h, mean, read-out: Total Lung Parenchyma Concentration, mean",2.1 nM
same,concentration at 0.5 h,"[3]; plasma, 0.5 h, individual mice, read-out: Total Plasma Concentration, individual",1920 nM
same,concentration at 0.5 h,"[3]; plasma, 0.5 h, mean, read-out: Total Plasma Concentration, mean",1580 nM
same,concentration at 4 h,"[3]; plasma, 4.0 h, individual mice, read-out: Total Plasma Concentration, individual",7.8 nM
same,concentration at 4 h,"[3]; plasma, 4.0 h, mean, mouse 16 excluded, read-out: Total Plasma Concentration, mean",6.9 nM
same,blood plasma ratio at 1 h,[4],1.4
same,Stability in brain and lung homogenates,[5],stable
same,Reduction of neuronal cell death caused by NSP5,"primary neurons [6]; 0.4, 1, 2, 10 or 50 μM, 48 hours",selectively reduced neuronal cell death caused by NSP5
same,Cell death caused by compound,primary neurons [6]; therapeutic concentrations (nM to low μM),did not cause any cell death
